Measured values from patent publication US9428503B2, “Imidazo[4,5-c]quinolin-2-one compounds and their use in treating Cancer” (AstraZeneca AB, priority 2014, dated 2016).
Where a name gives a salt, the structure may show the parent alone.

Key:
Type in all cases: cell-based
PI3K-α = PI3K-α (Homo sapiens, UniProt P42336); assay: Assay c) PI3K cellular potency assay (phospho-Akt T308 ELISA in BT474 cells); conditions: BT474 cells, phospho-Akt T308, 2 h; geometric mean where repeated; read-out: Assay c) PI3Kα Cell IC50
ATM kinase = ATM kinase (Homo sapiens (Human), UniProt Q13315); assay: Assay a) ATM cellular potency assay (pATM Ser1981 in X-ray irradiated HT29 cells); conditions: HT29 cells, pATM Ser1981 after X-ray irradiation; geometric mean where repeated; read-out: Assay a) ATM Cell IC50
ATR kinase = ATR kinase (Homo sapiens (Human), UniProt Q13535); assay: Assay b) ATR cellular potency assay (pChk1 Ser345 in HT29 cells treated with 4NQO); conditions: HT29 cells, pChk1 Ser345 after 4NQO; geometric mean where repeated; read-out: Assay b) ATR Cell IC50
mTOR = mTOR (Homo sapiens (Human), UniProt P42345); assay: Assay d) mTOR cellular potency assay (phospho-AKT Ser473 in MDA-MB-468 cells); conditions: MDA-MB-468 cells, phospho-AKT Ser473, 2 h; geometric mean where repeated; read-out: Assay d) mTOR Cell IC50

ATR kinase, sequence (Q13535 whole entry): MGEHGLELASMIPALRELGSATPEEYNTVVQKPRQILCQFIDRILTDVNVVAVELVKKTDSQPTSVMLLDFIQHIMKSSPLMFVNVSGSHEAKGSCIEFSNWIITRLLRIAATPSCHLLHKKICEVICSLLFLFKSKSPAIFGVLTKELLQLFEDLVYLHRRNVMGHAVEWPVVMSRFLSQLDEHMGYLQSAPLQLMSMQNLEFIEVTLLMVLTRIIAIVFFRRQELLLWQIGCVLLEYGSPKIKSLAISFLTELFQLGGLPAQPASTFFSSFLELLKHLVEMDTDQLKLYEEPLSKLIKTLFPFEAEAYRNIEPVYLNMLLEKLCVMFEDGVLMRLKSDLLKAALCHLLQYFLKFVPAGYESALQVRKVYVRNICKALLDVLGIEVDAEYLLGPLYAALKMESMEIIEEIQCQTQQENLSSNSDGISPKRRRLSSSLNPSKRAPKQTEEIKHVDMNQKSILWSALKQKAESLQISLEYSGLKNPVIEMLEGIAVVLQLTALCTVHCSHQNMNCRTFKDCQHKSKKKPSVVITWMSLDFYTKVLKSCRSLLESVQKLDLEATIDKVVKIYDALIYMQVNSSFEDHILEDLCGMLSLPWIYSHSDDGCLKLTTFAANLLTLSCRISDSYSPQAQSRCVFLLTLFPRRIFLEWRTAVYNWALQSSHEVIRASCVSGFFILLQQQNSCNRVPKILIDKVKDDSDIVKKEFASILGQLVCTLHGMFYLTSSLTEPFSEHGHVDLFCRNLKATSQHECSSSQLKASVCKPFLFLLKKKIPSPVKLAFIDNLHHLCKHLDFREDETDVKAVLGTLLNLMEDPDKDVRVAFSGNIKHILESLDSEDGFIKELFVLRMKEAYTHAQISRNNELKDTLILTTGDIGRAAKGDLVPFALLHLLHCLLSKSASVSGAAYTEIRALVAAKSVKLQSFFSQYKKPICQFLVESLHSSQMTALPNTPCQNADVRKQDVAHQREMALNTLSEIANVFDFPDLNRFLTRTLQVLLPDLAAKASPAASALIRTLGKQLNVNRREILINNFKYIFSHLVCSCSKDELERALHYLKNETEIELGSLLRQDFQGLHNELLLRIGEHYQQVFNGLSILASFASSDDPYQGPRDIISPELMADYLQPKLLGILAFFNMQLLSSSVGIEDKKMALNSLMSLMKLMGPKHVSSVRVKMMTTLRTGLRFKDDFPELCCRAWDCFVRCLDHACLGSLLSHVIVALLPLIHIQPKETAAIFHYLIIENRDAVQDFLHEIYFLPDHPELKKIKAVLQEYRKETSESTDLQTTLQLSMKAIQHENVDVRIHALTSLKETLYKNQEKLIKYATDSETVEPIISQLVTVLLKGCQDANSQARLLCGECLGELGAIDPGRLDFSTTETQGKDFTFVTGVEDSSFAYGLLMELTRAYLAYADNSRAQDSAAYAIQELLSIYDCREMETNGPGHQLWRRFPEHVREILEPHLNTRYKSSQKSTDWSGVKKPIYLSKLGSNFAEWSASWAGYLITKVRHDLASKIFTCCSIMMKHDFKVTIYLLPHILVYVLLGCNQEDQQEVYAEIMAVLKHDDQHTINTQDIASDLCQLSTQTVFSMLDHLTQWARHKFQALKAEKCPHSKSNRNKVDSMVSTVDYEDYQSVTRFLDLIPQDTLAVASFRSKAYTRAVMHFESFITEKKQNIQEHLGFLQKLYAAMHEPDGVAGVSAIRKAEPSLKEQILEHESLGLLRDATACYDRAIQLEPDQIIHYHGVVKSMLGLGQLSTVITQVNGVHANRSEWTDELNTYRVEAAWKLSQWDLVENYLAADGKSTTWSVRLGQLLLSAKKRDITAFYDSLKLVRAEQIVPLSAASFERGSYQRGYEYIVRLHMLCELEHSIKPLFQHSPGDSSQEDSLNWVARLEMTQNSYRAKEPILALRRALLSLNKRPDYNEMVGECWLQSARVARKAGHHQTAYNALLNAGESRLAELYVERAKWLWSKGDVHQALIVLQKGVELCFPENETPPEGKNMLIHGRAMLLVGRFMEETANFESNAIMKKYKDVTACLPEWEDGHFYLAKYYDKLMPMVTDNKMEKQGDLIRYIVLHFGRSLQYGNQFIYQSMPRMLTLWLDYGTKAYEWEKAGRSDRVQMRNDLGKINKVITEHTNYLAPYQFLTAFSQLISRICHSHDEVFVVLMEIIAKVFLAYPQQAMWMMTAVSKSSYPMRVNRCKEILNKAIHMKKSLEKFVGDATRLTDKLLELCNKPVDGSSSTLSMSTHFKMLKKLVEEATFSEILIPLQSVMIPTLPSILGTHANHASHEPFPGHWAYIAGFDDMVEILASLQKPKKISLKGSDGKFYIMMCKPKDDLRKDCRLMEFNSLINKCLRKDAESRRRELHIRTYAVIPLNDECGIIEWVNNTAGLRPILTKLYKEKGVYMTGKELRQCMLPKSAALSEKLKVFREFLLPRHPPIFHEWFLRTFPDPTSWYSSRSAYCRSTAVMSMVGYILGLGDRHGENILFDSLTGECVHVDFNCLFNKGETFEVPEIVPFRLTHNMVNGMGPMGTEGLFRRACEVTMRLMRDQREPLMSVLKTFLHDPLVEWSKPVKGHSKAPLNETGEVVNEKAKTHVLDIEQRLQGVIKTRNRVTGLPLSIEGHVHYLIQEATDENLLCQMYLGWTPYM
ATR kinase, sequence (Q8WXE1 whole entry partner): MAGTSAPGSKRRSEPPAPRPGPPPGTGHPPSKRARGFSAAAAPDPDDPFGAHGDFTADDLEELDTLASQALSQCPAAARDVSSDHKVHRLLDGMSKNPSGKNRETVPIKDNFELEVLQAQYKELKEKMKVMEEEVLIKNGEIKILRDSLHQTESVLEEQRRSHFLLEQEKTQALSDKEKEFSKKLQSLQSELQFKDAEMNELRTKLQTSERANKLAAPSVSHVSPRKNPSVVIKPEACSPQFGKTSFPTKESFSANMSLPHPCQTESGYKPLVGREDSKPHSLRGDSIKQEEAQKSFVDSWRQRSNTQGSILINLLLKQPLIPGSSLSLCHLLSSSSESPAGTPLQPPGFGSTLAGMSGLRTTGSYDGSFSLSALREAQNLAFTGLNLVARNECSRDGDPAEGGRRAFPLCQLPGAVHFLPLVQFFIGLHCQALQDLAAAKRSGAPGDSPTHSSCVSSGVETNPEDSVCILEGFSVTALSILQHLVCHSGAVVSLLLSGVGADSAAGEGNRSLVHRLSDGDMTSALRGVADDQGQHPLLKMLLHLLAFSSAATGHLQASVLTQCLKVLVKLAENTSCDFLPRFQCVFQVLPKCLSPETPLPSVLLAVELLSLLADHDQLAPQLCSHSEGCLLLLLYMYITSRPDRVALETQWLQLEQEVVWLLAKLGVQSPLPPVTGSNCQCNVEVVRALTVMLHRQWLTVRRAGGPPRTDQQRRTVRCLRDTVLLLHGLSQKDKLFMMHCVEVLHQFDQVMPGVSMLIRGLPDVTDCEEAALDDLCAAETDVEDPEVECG
PI3K-α, sequence (P42336 whole entry, looked up): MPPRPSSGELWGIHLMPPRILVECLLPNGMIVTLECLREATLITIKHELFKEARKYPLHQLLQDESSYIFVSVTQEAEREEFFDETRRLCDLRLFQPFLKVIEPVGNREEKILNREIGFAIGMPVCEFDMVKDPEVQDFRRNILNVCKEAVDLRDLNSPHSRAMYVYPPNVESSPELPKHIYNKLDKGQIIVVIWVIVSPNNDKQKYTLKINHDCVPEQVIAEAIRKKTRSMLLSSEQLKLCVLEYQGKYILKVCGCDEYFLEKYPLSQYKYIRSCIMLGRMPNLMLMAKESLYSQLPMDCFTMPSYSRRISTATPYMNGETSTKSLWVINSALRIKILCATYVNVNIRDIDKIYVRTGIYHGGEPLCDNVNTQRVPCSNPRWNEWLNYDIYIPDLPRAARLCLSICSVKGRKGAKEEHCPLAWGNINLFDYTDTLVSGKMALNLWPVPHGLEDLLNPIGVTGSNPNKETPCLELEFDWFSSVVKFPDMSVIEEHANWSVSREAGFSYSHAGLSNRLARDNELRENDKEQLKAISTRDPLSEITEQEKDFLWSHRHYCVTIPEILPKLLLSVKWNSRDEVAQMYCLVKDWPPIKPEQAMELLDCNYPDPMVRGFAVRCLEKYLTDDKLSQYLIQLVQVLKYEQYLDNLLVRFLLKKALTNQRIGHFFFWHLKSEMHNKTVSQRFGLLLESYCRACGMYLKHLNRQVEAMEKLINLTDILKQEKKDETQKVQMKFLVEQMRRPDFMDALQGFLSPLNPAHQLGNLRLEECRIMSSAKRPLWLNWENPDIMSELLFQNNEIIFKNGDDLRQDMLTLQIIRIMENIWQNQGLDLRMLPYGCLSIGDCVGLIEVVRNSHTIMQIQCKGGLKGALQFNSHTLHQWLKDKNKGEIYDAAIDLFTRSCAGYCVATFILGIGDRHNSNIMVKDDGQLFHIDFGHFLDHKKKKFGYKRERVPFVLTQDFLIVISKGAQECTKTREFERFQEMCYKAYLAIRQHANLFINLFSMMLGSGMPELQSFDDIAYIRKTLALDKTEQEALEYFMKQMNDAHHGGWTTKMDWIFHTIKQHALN

Row | Compound | IC50 (PI3K-α) [µM] | IC50 (ATM kinase) [µM] | IC50 (ATR kinase) [µM] | IC50 (mTOR) [µM]
1 | CN(C)CCCOc1ccc(-c2ccc3ncc4c(c3c2)n([C@@H]2CCOC2)c(=O)n4C)cn1 [Example 44, 8-[6-[3-(Dimethylamino)propoxy]-3-pyridyl]-3-methyl-1-[(3R)-tetrahydrofuran-3-yl]imidazo[4,5-c]quinolin-2-one methanesulfonic acid salt] | 0.56 | 0.00107 | > 19.2 | 2.37
2 | CN(C)CCCOc1ccc(-c2ccc3ncc4c(c3c2)n([C@H]2CCOC2)c(=O)n4C)cn1 [Example 45, 8-[6-[3-(dimethylamino)propoxy]-3-pyridyl]-3-methyl-1-[(3S)-tetrahydrofuran-3-yl]imidazo[4,5-c]quinolin-2-one methanesulfonic acid salt] | 0.26 | < 0.000534 | 9.6 | 1.19
3 | Cn1c(=O)n([C@H]2CCCOC2)c2c3cc(-c4ccc(OCCCN5CCCCC5)nc4)c(F)cc3ncc21 [Example 47, 7-Fluoro-3-methyl-8-[6-[3-(1-piperidyl)propoxy]-3-pyridyl]-1-[(3S)-tetrahydropyran-3-yl]imidazo[4,5-c]quinolin-2-one methanesulfonic acid salt] | > 23.5 | 0.000799 | > 30 | > 30
4 | CN(C)CCCOc1ccc(-c2cc3c(cc2F)ncc2c3n([C@H]3CCCOC3)c(=O)n2C)c(F)n1 [Example 48, 8-[6-[3-(Dimethylamino)propoxy]-2-fluoro-3-pyridyl]-7-fluoro-3-methyl-1-[(3S)-tetrahydropyran-3-yl]imidazo[4,5-c]quinolin-2-one methanesulfonic acid salt] | > 9.4 | 0.00102 | > 30 | 23
5 | CN(C)CCCOc1ccc(-c2ccc3ncc4c(c3c2)n(C2CCC2)c(=O)n4C)c(F)n1 [Example 51, 1-cyclobutyl-8-[6-[3-(dimethylamino)propoxy]-2-fluoro-3-pyridyl]-3-methyl-imidazo[4,5-c]quinolin-2-one methanesulfonic acid salt] | 3.2 | 0.000722 | > 30 | 5.38
6 | Cn1c(=O)n(C2COC2)c2c3cc(-c4ccc(OCCCN5CCCCC5)nc4)ccc3ncc21 [Example 56, 3-methyl-1-(oxetan-3-yl)-8-[6-[3-(1-piperdyl)propoxy]-3-pyridyl]imidazo[4,5-c]quinolin-2-one trifluoroacetic acid salt] | > 26.3 | 0.00302 | > 30 | 12.4
7 | Cn1c(=O)n(C2CCC2)c2c3cc(-c4ccc(OCCCN5CCCCC5)nc4)ccc3ncc21 [Example 57, 1-cyclobutyl-3-methyl-8-[6-[3-(1-piperidyl)propoxy]-3-pyridyl]imidazo[4,5-c]quinolin-2-one trifluoroacetic acid salt] | > 14.3 | 0.000434 | > 30 | 5.77
8 | Cn1c(=O)n(C2CCC2)c2c3cc(-c4ccc(OCCCN5CCCC5)nc4)ccc3ncc21 [Example 58, 1-cyclobutyl-3-methyl-8-[6-(3-pyrrolidin-1-ylpropoxy)-3-pyridyl]imidazo[4,5-c]quinolin-2-one] | > 9.56 | 0.00031 | > 28.1 | 7.29
9 | CO[C@H]1CC[C@H](n2c(=O)n(C)c3cnc4cc(F)c(-c5ccc(OCCCN(C)C)nc5)cc4c32)C1 [Example 63, 8-[6-[3-(Dimethylamino)propoxy]-3-pyridyl]-7-fluoro-1-[(1S,3S)-3-methoxycyclopentyl]-3-methyl-imidazo[4,5-c]quinolin-2-one] | 3.28 | 0.00031 | > 30 | 10.8
10 | CO[C@@H]1CC[C@@H](n2c(=O)n(C)c3cnc4ccc(-c5ccc(OCCCN6CCCCC6)nc5)cc4c32)C1 [Example 64, 1-[(1R,3R)-3-Methoxycyclopentyl]-3-methyl-8-[6-[3-(1-piperidyl)propoxy]-3-pyridyl]imidazo[4,5-c]quinolin-2-one] | > 30 | 0.000741 | > 24.1 | 12
11 | CO[C@H]1CC[C@H](n2c(=O)n(C)c3cnc4ccc(-c5ccc(OCCCN6CCCCC6)nc5)cc4c32)C1 [Example 65, 1-[(1S,3S)-3-Methoxycyclopentyl]-3-methyl-8-[6-[3-(1-piperidyl)propoxy]-3-pyridyl]imidazo[4,5-c]quinolin-2-one] | 1.84 | 0.00022 | > 26.6 | 6.34
12 | CO[C@@H]1CC[C@@H](n2c(=O)n(C)c3cnc4ccc(-c5ccc(OCCCN(C)C)nc5F)cc4c32)C1 [Example 68, 8-[6-[3-(Dimethylamino)propoxy]-2-fluoro-3-pyridyl]-1-[(1R,3R)-3-methoxycyclopentyl]-3-methyl-imidazo[4,5-c]quinolin-2-one] | 0.644 | 0.000208 | > 29 | 3.18
13 | CO[C@H]1CC[C@@H](n2c(=O)n(C)c3cnc4cc(F)c(-c5ccc(OCCCN(C)C)nc5)cc4c32)C1 [Example 70, 8-[6-[3-(dimethylamino)propoxy]-3-pyridyl]-7-fluoro-1-[(1R,3S)-3-methoxycyclopentyl]-3-methyl-imidazo[4,5-c]quinolin-2-one] | > 30 | 0.00243 | > 24.9 | > 30
14 | CO[C@@H]1CC[C@H](n2c(=O)n(C)c3cnc4cc(F)c(-c5ccc(OCCCN(C)C)nc5)cc4c32)C1 [Example 71, 8-[6-[3-(dimethylamino)propoxy]-3-pyridyl]-7-fluoro-1-[(1S,3R)-3-methoxycyclopentyl]-3-methyl-imidazo[4,5-c]quinolin-2-one] | > 11.4 | 0.00145 | > 30 | 15.2
